Values joined by “and” are separate entries in the source; they are usually repeats but may differ in a detail not shown here. Equal values may be shown once. Inconclusive results and toxic doses are left out. Residues, ends and D or L forms follow the SMILES beside them.
System: CD2F1 mice, L1210 leukemia ip, survival T/C
Experiment: NCI In Vivo Anticancer Drug Screen. Data for tumor model L1210 Leukemia (intraperitoneal) in CD2F1 (CDF1) mice
Details: higher = longer survival
Summary of the method: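 Antitumor effect is scored in animals hosting a serially transplanted tumor. Values compare compound-dosed animals against vehicle-only controls as a simple quotient.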

[1] = endpoint: mean survival time, dose: 100.0 mg/kg/injection, schedule: Q01DX001 (ip), vehicle: saline with Tween-80
[2] = endpoint: mean survival time, dose: 200.0 mg/kg/injection, schedule: Q01DX001 (ip), vehicle: saline with Tween-80
[3] = endpoint: mean survival time, dose: 400.0 mg/kg/injection, schedule: Q01DX001 (ip), vehicle: saline with Tween-80
[4] = endpoint: mean survival time, dose: 25.0 mg/kg/injection, schedule: Q04DX002 (ip), vehicle: saline
[5] = endpoint: mean survival time, dose: 50.0 mg/kg/injection, schedule: Q04DX002 (ip), vehicle: saline
[6] = endpoint: mean survival time, dose: 100.0 mg/kg/injection, schedule: Q01DX009 (ip), vehicle: saline with Tween-80
[7] = endpoint: mean survival time, dose: 200.0 mg/kg/injection, schedule: Q01DX009 (ip), vehicle: saline with Tween-80
[8] = endpoint: mean survival time, dose: 400.0 mg/kg/injection, schedule: Q01DX009 (ip), vehicle: saline with Tween-80
[9] = endpoint: mean survival time, dose: 100.0 mg/kg/injection, schedule: Q04DX003 (ip), vehicle: saline with Tween-80
[10] = endpoint: mean survival time, dose: 200.0 mg/kg/injection, schedule: Q04DX003 (ip), vehicle: saline with Tween-80
[11] = endpoint: mean survival time, dose: 400.0 mg/kg/injection, schedule: Q04DX003 (ip), vehicle: saline with Tween-80
[12] = endpoint: mean survival time, dose: 75.0 mg/kg/injection, schedule: Q01DX001 (ip), vehicle: saline
[13] = endpoint: mean survival time, dose: 150.0 mg/kg/injection, schedule: Q01DX001 (ip), vehicle: saline
[14] = endpoint: mean survival time, dose: 50.0 mg/kg/injection, schedule: Q04DX002 (ip), vehicle: saline with Tween-80
[15] = endpoint: mean survival time, dose: 100.0 mg/kg/injection, schedule: Q01DX001 (ip), vehicle: saline
[16] = endpoint: mean survival time, dose: 200.0 mg/kg/injection, schedule: Q01DX001 (ip), vehicle: saline
[17] = endpoint: mean survival time, dose: 400.0 mg/kg/injection, schedule: Q01DX001 (ip), vehicle: saline

Fc1c(F)c(F)c(Oc2c(F)c(F)c(Cl)c(F)c2F)c(F)c1F
T/C [1]: 91 % of control
T/C [2]: 91 % of control
T/C [3]: 88 % of control

CC(O)C(NC(=O)C(N)CCCN=C(N)N)C(=O)NC(Cc1ccccc1)C(=O)O (stereo not drawn) (H-Arg-Thr-Phe-OH; configuration not given here)
T/C (endpoint: mean survival time, dose: 12.5 mg/kg/injection, schedule: Q04DX002 (ip), vehicle: saline): 98 % of control
T/C [4]: 95 % of control
T/C [5]: 98 % of control

N#CC(C#N)=C1c2ccccc2C(=O)c2ccccc21
T/C [6]: 90 % of control
T/C [7]: 86 % of control
T/C [8]: 90 % of control

O=C1OC(=O)C2C3c4ccccc4C(c4c3c(-c3ccccc3)c3ccccc3c4-c3ccccc3)C12 (stereo not drawn)
T/C [1]: 87 % of control
T/C [2]: 87 % of control
T/C [3]: 93 % of control

O=C1OC2CC1(O)CC(O)C2O (stereo not drawn)
T/C [1]: 96 % of control
T/C [2]: 89 % of control

CC(C)(C)CC(C)(C)C1=CC(=O)C(C(C)(C)CC(C)(C)C)=CC1=O
T/C [1]: 91 % of control
T/C [2]: 90 % of control
T/C [3]: 86 % of control

ICC(CI)(CI)CI
T/C [1]: 100 % of control
T/C [2]: 93 % of control
T/C [3]: 100 % of control

O=[N+]([O-])c1ccccc1SSc1ccccc1[N+](=O)[O-]
T/C [9]: 97 % of control
T/C [10]: 95 % of control
T/C [11]: 104 % of control

Nc1ncnc2c1ncn2C1OC(C(=O)OCCO)C(O)C1O (stereo not drawn)
T/C (endpoint: mean survival time, dose: 12.5 mg/kg/injection, schedule: Q01DX009 (ip), vehicle: saline): 108 % of control
T/C (endpoint: mean survival time, dose: 25.0 mg/kg/injection, schedule: Q01DX009 (ip), vehicle: saline): 114 % of control
T/C (endpoint: mean survival time, dose: 25.0 mg/kg/injection, schedule: Q01DX009 (ip), vehicle: suspension in saline): 110 % of control
T/C [4]: 93 % of control
T/C (endpoint: mean survival time, dose: 50.0 mg/kg/injection, schedule: Q01DX009 (ip), vehicle: suspension in saline): 124 % of control
T/C [5]: 95 % of control
T/C (endpoint: mean survival time, dose: 100.0 mg/kg/injection, schedule: Q04DX002 (ip), vehicle: saline): 93 % of control
T/C (endpoint: mean survival time, dose: 200.0 mg/kg/injection, schedule: Q04DX002 (ip), vehicle: saline): 90 % of control

C[N+]1=C(c2ccccc2)CCC(C(C)(C)C)C1 (stereo not drawn)
T/C (endpoint: mean survival time, dose: 37.5 mg/kg/injection, schedule: Q04DX003 (ip), vehicle: saline): 102 % of control
T/C [12]: 95 % of control
T/C (endpoint: mean survival time, dose: 75.0 mg/kg/injection, schedule: Q04DX003 (ip), vehicle: saline): 96 % of control
T/C [13]: 92 % of control
T/C (endpoint: mean survival time, dose: 150.0 mg/kg/injection, schedule: Q04DX003 (ip), vehicle: saline): 100 % of control

NC(=O)C1=C2CCCc3cccc(c32)C1=O
T/C [6]: 94 % of control
T/C [9]: 99 % of control
T/C [7]: 94 % of control
T/C [10]: 100 % of control
T/C [8]: 97 % of control
T/C [11]: 87 % of control

CC1OC(OC2C(O)C(CO)OC(OC3C(C(=O)O)OC(OC4CCC5(C)C(CCC6(C)C5CC=C5C7CC(C)(C)C(O)C(O)C7(CO)C(O)CC56C)C4(C)C)C(OC4OC(CO)C(O)C(O)C4O)C3O)C2O)C(O)C(O)C1O (stereo not drawn)
T/C [14]: 98 % of control
T/C (endpoint: mean survival time, dose: 100.0 mg/kg/injection, schedule: Q04DX002 (ip), vehicle: saline with Tween-80): 102 % of control
T/C (endpoint: mean survival time, dose: 200.0 mg/kg/injection, schedule: Q04DX002 (ip), vehicle: saline with Tween-80): 107 % of control

CCCCCCCCN(C)Cc1cc(C(C)(C)C)cc(-c2ccccc2)c1O
T/C [6]: 96 % of control
T/C [7]: 96 % of control
T/C [8]: 96 % of control

CN(C)/C(N)=N\c1nc(O)cc(=O)[nH]1
T/C [15]: 102 % of control
T/C [16]: 96 % of control
T/C [17]: 96 % of control

CC(=O)C(C(C)=O)c1ccc([N+](=O)[O-])cc1[N+](=O)[O-].CC(=O)C(C(C)=O)c1ccc([N+](=O)[O-])cc1[N+](=O)[O-].[Cu]
T/C (endpoint: median survival time, dose: 50.0 mg/kg/injection, schedule: Q04DX002 (ip), vehicle: saline with Tween-80): 88 % of control
T/C (endpoint: median survival time, dose: 100.0 mg/kg/injection, schedule: Q04DX002 (ip), vehicle: saline with Tween-80): 88 % of control
T/C (endpoint: median survival time, dose: 400.0 mg/kg/injection, schedule: Q04DX002 (ip), vehicle: saline with Tween-80): 88 % of control

CC(=O)Nc1ccc2c(c1)C(=O)c1ccccc1-2
T/C (endpoint: mean survival time, dose: 50.0 mg/kg/injection, schedule: Q01DX001 (ip), vehicle: saline): 104 % of control
T/C [15]: 101 % of control
T/C (endpoint: mean survival time, dose: 100.0 mg/kg/injection, schedule: Q01DX009 (ip), vehicle: saline): 106 % of control
T/C (endpoint: mean survival time, dose: 100.0 mg/kg/injection, schedule: Q04DX003 (ip), vehicle: saline): 87 % of control
T/C [16]: 95 % of control
T/C (endpoint: mean survival time, dose: 200.0 mg/kg/injection, schedule: Q01DX009 (ip), vehicle: saline): 96 % of control
T/C (endpoint: mean survival time, dose: 200.0 mg/kg/injection, schedule: Q04DX003 (ip), vehicle: saline): 94 % of control
T/C [17]: 87 % of control
T/C (endpoint: mean survival time, dose: 400.0 mg/kg/injection, schedule: Q01DX009 (ip), vehicle: saline): 95 % of control
T/C (endpoint: mean survival time, dose: 400.0 mg/kg/injection, schedule: Q04DX003 (ip), vehicle: saline): 92 % of control

Cn1c(=O)cc(C=Nc2ccc(S(N)(=O)=O)cc2)c2ccccc21
T/C [6]: 90 % of control
T/C [7]: 89 % of control
T/C [8]: 89 % of control

[Cl][Pt+2][Cl].[NH-]Cc1ccccc1.[NH-]Cc1ccccc1
T/C (endpoint: mean survival time, dose: 50.0 mg/kg/injection, schedule: Q01DX001 (ip), vehicle: saline with Tween-80): 110 % of control
T/C [1]: 110 % of control
T/C [2]: 110 % of control

O=C(O[Si](Cc1ccccc1)(Cc1ccccc1)Cc1ccccc1)N(CCCl)CCCl
T/C (endpoint: mean survival time, dose: 6.25 mg/kg/injection, schedule: Q01DX009 (ip), vehicle: distilled water + Tween-80): 109 % of control
T/C (endpoint: mean survival time, dose: 6.25 mg/kg/injection, schedule: Q01DX009 (ip), vehicle: saline with Tween-80): 96 % of control
T/C (endpoint: mean survival time, dose: 12.5 mg/kg/injection, schedule: Q01DX009 (ip), vehicle: saline with Tween-80): 103 % of control
T/C (endpoint: mean survival time, dose: 25.0 mg/kg/injection, schedule: Q01DX009 (ip), vehicle: distilled water + Tween-80): 117 % of control
T/C (endpoint: mean survival time, dose: 25.0 mg/kg/injection, schedule: Q01DX009 (ip), vehicle: saline with Tween-80): 111 % of control
T/C (endpoint: mean survival time, dose: 50.0 mg/kg/injection, schedule: Q01DX009 (ip), vehicle: saline with Tween-80): 121 % of control
T/C [6]: 123 % of control
T/C (endpoint: mean survival time, dose: 200.0 mg/kg/injection, schedule: Q01DX009 (ip), vehicle: distilled water + Tween-80): 91 % of control
T/C [7]: 152 % of control

NC(N)=N/N=C\c1ccc2ccccc2c1
T/C (endpoint: mean survival time, dose: 25.0 mg/kg/injection, schedule: Q04DX002 (ip), vehicle: saline with Tween-80): 97 % of control
T/C [14]: 101 % of control

Cc1ccc(C2CC3c4ccccc4C2C2CCCCN32)cc1 (stereo not drawn)
T/C (endpoint: mean survival time, dose: 1.56 mg/kg/injection, schedule: Q01DX009 (ip), vehicle: water): 88 % of control and 86 % of control
T/C (endpoint: mean survival time, dose: 3.13 mg/kg/injection, schedule: Q01DX009 (ip), vehicle: water): 86 % of control
T/C (endpoint: mean survival time, dose: 6.25 mg/kg/injection, schedule: Q01DX009 (ip), vehicle: water): 88 % of control
T/C (endpoint: mean survival time, dose: 12.5 mg/kg/injection, schedule: Q01DX009 (ip), vehicle: water): 88 % of control and 93 % of control
T/C (endpoint: mean survival time, dose: 25.0 mg/kg/injection, schedule: Q01DX009 (ip), vehicle: water): 89 % of control and 102 % of control

CCOc1c(F)ccc(F)c1-c1c(F)ccc(F)c1OCC
T/C [9]: 98 % of control
T/C [10]: 95 % of control
T/C [11]: 106 % of control

Cc1c2cnccc2c(C)c2c1c1ccccc1n2CCO
T/C [9]: 123 % of control
T/C [10]: 117 % of control
T/C [8]: 170 % of control
T/C [11]: 162 % of control

CC(C)(C)OC(=O)NCC(=O)ON1C(=O)CCC1=O
T/C [9]: 96 % of control
T/C [10]: 87 % of control

CN1CCc2c(c3ccccc3c3ccccc23)C1
T/C (endpoint: mean survival time, dose: 3.12 mg/kg/injection, schedule: Q01DX009 (ip), vehicle: Klucel (hydroxypropylcellulose) (HPC)): 104 % of control
T/C (endpoint: mean survival time, dose: 6.25 mg/kg/injection, schedule: Q01DX009 (ip), vehicle: Klucel (hydroxypropylcellulose) (HPC)): 101 % of control
T/C (endpoint: mean survival time, dose: 12.5 mg/kg/injection, schedule: Q01DX009 (ip), vehicle: Klucel (hydroxypropylcellulose) (HPC)): 97 % of control
T/C (endpoint: mean survival time, dose: 25.0 mg/kg/injection, schedule: Q01DX009 (ip), vehicle: Klucel (hydroxypropylcellulose) (HPC)): 95 % of control
T/C (endpoint: mean survival time, dose: 50.0 mg/kg/injection, schedule: Q01DX009 (ip), vehicle: Klucel (hydroxypropylcellulose) (HPC)): 106 % of control
T/C (endpoint: mean survival time, dose: 100.0 mg/kg/injection, schedule: Q01DX009 (ip), vehicle: Klucel (hydroxypropylcellulose) (HPC)): 113 % of control

Cc1[nH]c2ccc([N+](=O)[O-])cc2c1CN(C)C
T/C [12]: 96 % of control
T/C [13]: 100 % of control

From PubChem BioAssay AID256 (DTP/NCI, 2004)
